From ChEMBL document CHEMBL3882724 (2013)

How the values were obtained:
[1] = biological target: T1, Steroid 17-alpha-hydroxylase/17,20 lyase (Homo sapiens, UniProt P05093); assay: Inhibition of CYP17 in human testicular microsomes using 17alpha-hydroxypregnenolone as substrate assessed as decrease in DHEA levels at 10 nM after 90 mins by ELISA relative to control; parameters: species or system Testis; settings: 1.5 h
T1 sequence (P05093 whole entry): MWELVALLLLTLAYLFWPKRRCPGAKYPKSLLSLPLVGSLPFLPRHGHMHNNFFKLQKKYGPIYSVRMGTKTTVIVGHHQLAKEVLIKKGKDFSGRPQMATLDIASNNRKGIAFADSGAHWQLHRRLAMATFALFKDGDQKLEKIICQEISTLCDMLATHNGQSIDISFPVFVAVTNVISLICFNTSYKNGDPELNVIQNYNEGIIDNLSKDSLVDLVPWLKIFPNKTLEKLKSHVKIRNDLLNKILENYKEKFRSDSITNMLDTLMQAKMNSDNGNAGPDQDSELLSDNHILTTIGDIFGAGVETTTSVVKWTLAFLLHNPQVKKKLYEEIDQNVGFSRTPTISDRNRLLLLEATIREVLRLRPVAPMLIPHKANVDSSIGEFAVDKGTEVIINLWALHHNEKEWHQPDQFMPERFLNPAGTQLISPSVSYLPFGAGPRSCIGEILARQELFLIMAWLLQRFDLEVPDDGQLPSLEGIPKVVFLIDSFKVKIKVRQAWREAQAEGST

CYP11B = biological target: T2, CYP11B (Rattus norvegicus, UniProt P15393+P30099); assay: Inhibition of Sprague-Dawley rat adrenal mitochondrial CYP11B assessed as decrease in conversion of 11-deoxycortisol to cortisol at 100 nM incubated for 60 mins by ELISA relative to control; type: protein assay; settings: adrenal mitochondria, probe 11-deoxycortisol
T2 sequence (P30099 whole entry): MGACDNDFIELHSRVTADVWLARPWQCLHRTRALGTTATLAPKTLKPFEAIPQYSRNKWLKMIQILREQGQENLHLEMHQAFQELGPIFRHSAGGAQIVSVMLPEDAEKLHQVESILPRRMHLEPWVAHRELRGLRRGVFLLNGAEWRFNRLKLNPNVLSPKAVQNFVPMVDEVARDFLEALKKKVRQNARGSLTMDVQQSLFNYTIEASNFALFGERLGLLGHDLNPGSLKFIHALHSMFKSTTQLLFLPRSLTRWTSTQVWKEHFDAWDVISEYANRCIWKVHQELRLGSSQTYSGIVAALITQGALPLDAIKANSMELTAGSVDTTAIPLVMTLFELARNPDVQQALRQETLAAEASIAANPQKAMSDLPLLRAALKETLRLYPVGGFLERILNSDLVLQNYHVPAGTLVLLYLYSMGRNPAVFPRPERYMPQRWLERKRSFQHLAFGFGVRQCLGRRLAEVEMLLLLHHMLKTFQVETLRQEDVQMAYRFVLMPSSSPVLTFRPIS
T2 sequence (P15393 whole entry): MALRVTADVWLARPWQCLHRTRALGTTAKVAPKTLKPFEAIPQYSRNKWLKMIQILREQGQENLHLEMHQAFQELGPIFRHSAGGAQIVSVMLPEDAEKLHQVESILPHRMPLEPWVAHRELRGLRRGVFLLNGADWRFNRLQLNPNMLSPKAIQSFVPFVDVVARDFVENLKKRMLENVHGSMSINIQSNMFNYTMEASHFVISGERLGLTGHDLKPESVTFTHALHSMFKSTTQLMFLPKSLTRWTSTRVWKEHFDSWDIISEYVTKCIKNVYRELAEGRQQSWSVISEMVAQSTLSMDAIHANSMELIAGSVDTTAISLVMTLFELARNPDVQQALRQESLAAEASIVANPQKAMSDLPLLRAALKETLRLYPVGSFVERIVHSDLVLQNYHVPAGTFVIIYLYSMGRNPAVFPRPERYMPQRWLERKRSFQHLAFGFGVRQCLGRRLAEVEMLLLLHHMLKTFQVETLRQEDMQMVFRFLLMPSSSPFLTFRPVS

[2] = biological target: T3, CYP21 (steroid 21-hydroxylase) (Homo sapiens, UniProt P08686); assay: Inhibition of human CYP21 transfected in HEK293 cells assessed as decrease in conversion of progesterone to 11-deoxycorticosterone at 100 nM preincubated for 5 hrs followed by progesterone addition measured after 20 hrs by ELISA relative to control; type: cell-based; settings: HEK293 cells transfected with human CYP21, probe progesterone
T3 sequence (P08686 whole entry): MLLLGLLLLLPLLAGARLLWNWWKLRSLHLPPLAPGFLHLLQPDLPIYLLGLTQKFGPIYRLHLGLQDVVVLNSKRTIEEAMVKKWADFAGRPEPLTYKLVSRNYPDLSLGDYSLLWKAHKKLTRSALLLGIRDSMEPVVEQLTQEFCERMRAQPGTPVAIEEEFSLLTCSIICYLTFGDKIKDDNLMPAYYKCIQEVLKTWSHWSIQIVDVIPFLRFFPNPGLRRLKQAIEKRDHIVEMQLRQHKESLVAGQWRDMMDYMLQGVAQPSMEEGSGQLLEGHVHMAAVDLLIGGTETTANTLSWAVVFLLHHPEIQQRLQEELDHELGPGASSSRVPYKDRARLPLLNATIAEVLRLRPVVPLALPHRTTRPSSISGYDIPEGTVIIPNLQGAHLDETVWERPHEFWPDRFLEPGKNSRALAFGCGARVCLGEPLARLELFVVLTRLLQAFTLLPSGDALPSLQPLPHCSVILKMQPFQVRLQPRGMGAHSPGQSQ

[3] = Half life in human liver microsomes at 1 uM by LC-MS/MS analysis
[4] = biological target: T1, Steroid 17-alpha-hydroxylase/17,20 lyase; assay: Inhibition of CYP17 in human testicular microsomes using 17alpha-hydroxypregnenolone as substrate assessed as decrease in DHEA levels after 90 mins by ELISA; parameters: species or system Testis
[5] = biological target: T1, Steroid 17-alpha-hydroxylase/17,20 lyase; assay: Inhibition of CYP17 in human testicular microsomes using 17alpha-hydroxypregnenolone as substrate assessed as decrease in DHEA levels at 1 nM after 90 mins by ELISA relative to control; parameters: species or system Testis
[6] = biological target: T3, CYP21 (steroid 21-hydroxylase); assay: Inhibition of human CYP21 transfected in HEK293 cells assessed as decrease in conversion of progesterone to 11-deoxycorticosterone preincubated for 5 hrs followed by progesterone addition measured after 20 hrs by ELISA; type: cell-based; parameters: concentration or dose not given beside the values; settings: HEK293 cells transfected with human CYP21, probe progesterone
[7] = Half life in rat liver microsomes at 1 uM by LC-MS/MS analysis
[8] = biological target: T1, Steroid 17-alpha-hydroxylase/17,20 lyase; assay: Inhibition of human C17,20-lyase in human testis microsomes at 10 nM using 17alpha-hydroxypregnenolone/[21-3H]-17alpha-hydroxypregnenolone as substrate after 30 mins by scintillation counting method relative to control; settings: 0.5 h
[9] = biological target: T1, Steroid 17-alpha-hydroxylase/17,20 lyase; assay: Inhibition of CYP17 in human H295R cells assessed as decrease in testosterone levels after 24 hrs by ELISA; type: cell-based

Row | inhibition at 0.01 µM [1] [%] | inhibition at 20 h, 0.1 µM [2] [%] | half-life at 1 µM [3] [min] | IC50 [4] [nM] | half-life at 1 µM [7] [min] | inhibition at 0.01 µM [8] [%] | IC50 [9] [nM] | Structure (SMILES) | inhibition at 1 h, 0.1 µM (CYP11B) [%] | IC50 [5] [nM] | inhibition at 20 h [6] [%]
1 | ≥ 80 | ≥ 30 | 1 to 50 | ≤ 11 |  |  |  | CN1CC[C@@]2(C)C(=CC1=O)CC[C@H]1C3=CC=C(c4cccnc4)[C@@]3(C)CC[C@@H]12 | < 32 |  | 
2 | ≥ 80 | ≥ 30 | 1 to 50 | ≤ 11 | 1 to 10 |  |  | C[C@]12CC[C@H]3[C@@H](CCC4=CC(=O)CC[C@@]43C)C1=CC=C2c1cccnc1 |  |  | 
3 |  |  | 1 to 50 | ≤ 11 | 10 to 60 | ≥ 38 |  | C[C@]12CCC(=O)OC[C@@H]1CC[C@@H]1[C@@H]2CC[C@]2(C)C(c3cccnc3)=CC[C@@H]12 |  |  | 
4 | ≥ 80 | ≥ 30 | 10 to 60 | ≤ 11 | 10 to 60 |  | ≤ 15 | C[C@]12CC(O)C[C@@H]1CC[C@@H]1[C@@H]2CC[C@]2(C)C(n3ccnc3)=CC[C@@H]12 (stereo not given in full) | ≥ 50 |  | 
5 |  |  |  |  |  | ≥ 38 |  | C[C@]12CC[C@H]3[C@@H](CCN4C(=O)C=CCC[C@]34C)[C@@H]1CC=C2c1cccnc1 |  |  | 
6 |  |  | 1 to 10 |  | 1 to 10 | ≥ 38 |  | C[C@]12CC[C@H]3[C@@H](CCN4C(=O)CC=CC[C@]34C)[C@@H]1CC=C2c1cccnc1 |  |  | 
7 |  |  |  |  |  | 3 to 38 |  | CCOc1cncc(C2=CC[C@H]3[C@@H]4CC[C@H]5COC(=O)CC[C@]5(C)[C@H]4CC[C@]23C)c1 |  |  | 
8 | ≥ 80 | < 30 | ≥ 50 | ≤ 11 | 10 to 60 |  | ≤ 15 | C[C@]12CCNC(=O)C=C1CC[C@@H]1[C@@H]2CC[C@]2(C)C(n3ccnc3)=CC[C@@H]12 |  |  | 
9 | ≥ 80 | ≥ 30 | ≥ 50 |  | 10 to 60 |  | ≤ 15 | CN1CC[C@@]2(C)C(=CC1=O)CC[C@H]1C3=CC=C(n4ccnc4)[C@@]3(C)CC[C@@H]12 |  |  | 
10 |  |  |  |  |  | ≥ 38 |  | COc1cncc(C2=CC[C@H]3[C@@H]4CC[C@H]5COC(=O)CC[C@]5(C)[C@H]4CC[C@]23C)c1 |  |  | 
11 | ≥ 80 | ≥ 30 | 1 to 10 | ≤ 11 | 1 to 10 |  |  | C[C@]12CCNC(=O)C=C1CC[C@@H]1[C@@H]2CC[C@]2(C)C(n3cncn3)=CC[C@@H]12 | < 32 |  | 
12 |  |  | 1 to 50 | ≤ 11 | 10 to 60 | ≥ 38 |  | C[C@]12CCOC(=O)C[C@@H]1CC[C@@H]1[C@@H]2CC[C@]2(C)C(c3cccnc3)=CC[C@@H]12 |  |  | 
13 | 50 to 80 | ≥ 30 | 10 to 60 | ≤ 11 | 10 to 60 |  |  | CN1CC[C@@]2(C)C(=CC1=O)CCC1[C@@H]2CC[C@]2(C)C(c3cccnc3)=CC[C@@H]12 (single isomer, unassigned) |  |  | 

Row | Structure (SMILES) | inhibition at 0.01 µM [1] [%] | inhibition at 20 h, 0.1 µM [2] [%] | half-life at 1 µM [3] [min] | IC50 [4] [nM] | half-life at 1 µM [7] [min] | inhibition at 0.01 µM [8] [%] | IC50 [9] [nM] | inhibition at 1 h, 0.1 µM (CYP11B) [%] | IC50 [5] [nM] | inhibition at 20 h [6] [%]
14 | CO/N=C1/C=C2CC[C@H]3C4=CC=C(c5cccnc5)[C@@]4(C)CC[C@@H]3[C@@]2(C)CC1 |  | ≥ 30 | ≥ 50 | ≤ 11 |  |  |  |  | > 100 | 10 to 50
15 | C[C@]12CC[C@H]3[C@@H](CC[C@H]4CC(=O)CC[C@@]43C)C1=CC=C2c1cccnc1 | ≥ 80 | ≥ 30 | 1 to 50 | ≤ 11 |  |  |  | ≥ 50 |  | 
16 | CCNC(=O)N[C@@H]1CC[C@@]2(C)C(=CC[C@@H]3[C@@H]2CC[C@]2(C)C(n4ccnc4)=CC[C@@H]32)C1 |  | < 30 | 1 to 50 |  |  |  |  | ≥ 50 |  | ≥ 50
17 | C[C@]12CC[C@H]3[C@@H](CC[C@H]4CC(=O)CC[C@@]43C)C1=CC=C2n1ccnc1 | ≥ 80 | < 30 | 1 to 50 | ≤ 11 |  |  |  | < 32 |  | 
18 | C[C@]12CC[C@H]3[C@@H](CC=C4C[C@@H](O)CC[C@@]43C)C1=CC=C2c1cccnc1 | 50 to 80 | < 30 | 1 to 50 | ≤ 11 | 10 to 60 |  | ≤ 15 | < 32 |  | 
19 | C[C@]12CC[C@H]3[C@@H](CCC4=CC(=O)CC[C@@]43C)C1=CC=C2n1ccnc1 | ≥ 80 | < 30 | ≥ 50 | ≤ 11 | 10 to 60 |  |  | ≥ 50 |  | 
